In PubChem BioAssay AID248 (DTP/NCI, 2004):
Toxic doses and inconclusive results are not listed.

Test system: L1210 leukemia ip in BDF1 mice, survival T/C
Test: NCI In Vivo Anticancer Drug Screen. Data for tumor model L1210 Leukemia (intraperitoneal) in B6D2F1 (BDF1) mice
Details: endpoint: mean survival time, higher = longer survival
Method in brief: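 Antitumor effect is assessed in tumor-bearing animals. Survival in the compound arm is compared with a vehicle-dosed control arm and expressed as their quotient.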

[1] = dose: 100.0 mg/kg/injection, schedule: Q01DX001 (ip), vehicle: carboxymethylcellulose (CMC)
[2] = dose: 200.0 mg/kg/injection, schedule: Q01DX001 (ip), vehicle: carboxymethylcellulose (CMC)
[3] = dose: 400.0 mg/kg/injection, schedule: Q01DX001 (ip), vehicle: carboxymethylcellulose (CMC)
[4] = dose: 50.0 mg/kg/injection, schedule: Q01DX009 (ip), vehicle: saline
[5] = dose: 100.0 mg/kg/injection, schedule: Q01DX001 (ip), vehicle: acetone
[6] = dose: 100.0 mg/kg/injection, schedule: Q01DX009 (ip), vehicle: saline
[7] = dose: 100.0 mg/kg/injection, schedule: Q04DX003 (ip), vehicle: acetone
[8] = dose: 200.0 mg/kg/injection, schedule: Q01DX001 (ip), vehicle: acetone
[9] = dose: 200.0 mg/kg/injection, schedule: Q04DX003 (ip), vehicle: acetone
[10] = dose: 100.0 mg/kg/injection, schedule: Q04DX003 (ip), vehicle: saline with Tween-80
[11] = dose: 200.0 mg/kg/injection, schedule: Q04DX003 (ip), vehicle: saline with Tween-80
[12] = dose: 400.0 mg/kg/injection, schedule: Q04DX003 (ip), vehicle: saline with Tween-80
[13] = dose: 100.0 mg/kg/injection, schedule: Q01DX009 (ip), vehicle: saline with Tween-80
[14] = dose: 200.0 mg/kg/injection, schedule: Q01DX009 (ip), vehicle: saline with Tween-80
[15] = dose: 400.0 mg/kg/injection, schedule: Q01DX009 (ip), vehicle: saline with Tween-80
[16] = dose: 100.0 mg/kg/injection, schedule: Q01DX009 (ip), vehicle: Klucel (hydroxypropylcellulose) (HPC)
[17] = dose: 100.0 mg/kg/injection, schedule: Q04DX003 (ip), vehicle: Klucel (hydroxypropylcellulose) (HPC)
[18] = dose: 200.0 mg/kg/injection, schedule: Q01DX009 (ip), vehicle: Klucel (hydroxypropylcellulose) (HPC)
[19] = dose: 200.0 mg/kg/injection, schedule: Q04DX003 (ip), vehicle: Klucel (hydroxypropylcellulose) (HPC)
[20] = dose: 400.0 mg/kg/injection, schedule: Q01DX009 (ip), vehicle: Klucel (hydroxypropylcellulose) (HPC)
[21] = dose: 400.0 mg/kg/injection, schedule: Q04DX003 (ip), vehicle: Klucel (hydroxypropylcellulose) (HPC)
[22] = dose: 100.0 mg/kg/injection, schedule: Q04DX002 (ip), vehicle: other
[23] = dose: 200.0 mg/kg/injection, schedule: Q04DX002 (ip), vehicle: other
[24] = dose: 400.0 mg/kg/injection, schedule: Q04DX002 (ip), vehicle: other
[25] = dose: 100.0 mg/kg/injection, schedule: Q01DX001 (ip), vehicle: Klucel (hydroxypropylcellulose) (HPC)
[26] = dose: 200.0 mg/kg/injection, schedule: Q01DX001 (ip), vehicle: Klucel (hydroxypropylcellulose) (HPC)

COc1ccc(-c2ccc(CC(N)=O)cc2)cc1Cl
T/C [1]: 91 % of control
T/C [2]: 94 % of control
T/C [3]: 89 % of control

Cc1nc(C(=O)O)cs1
T/C [4]: 95 % of control
T/C (dose: 50.0 mg/kg/injection, schedule: Q04DX003 (ip), vehicle: acetone): 90 % of control
T/C [5]: 98 % of control
T/C [6]: 92 % of control
T/C [7]: 92 % of control
T/C [8]: 102 % of control
T/C [9]: 95 % of control

CC(C)C(Br)C(=O)NCC(=O)O (stereo not given)
T/C [10]: 102 % of control
T/C [11]: 98 % of control
T/C [12]: 98 % of control

O=C(O)c1ccc(S(=O)(=O)N(Cl)Cl)cc1
T/C [13]: 96 % of control
T/C [14]: 100 % of control
T/C [15]: 98 % of control

O=C(Nc1ccc(C2=NCCN2)cc1)c1ccc(-c2ccc(C(=O)Nc3ccc(C4=NCCN4)cc3)cc2)cc1
T/C (dose: 111.0 mg/kg/injection, schedule: Q01DX Z (ip), vehicle: carboxymethylcellulose (CMC)): 105 % of control
T/C (dose: 166.0 mg/kg/injection, schedule: Q01DX Z (ip), vehicle: carboxymethylcellulose (CMC)): 101 % of control
T/C (dose: 250.0 mg/kg/injection, schedule: Q01DX Z (ip), vehicle: carboxymethylcellulose (CMC)): 106 % of control
T/C (dose: 375.0 mg/kg/injection, schedule: Q01DX Z (ip), vehicle: carboxymethylcellulose (CMC)): 109 % of control

CCCCCCCCCCCCCCCCCCOc1ccccn1
T/C [16]: 97 % of control
T/C [17]: 98 % of control
T/C [18]: 96 % of control
T/C [19]: 93 % of control
T/C [20]: 91 % of control
T/C [21]: 92 % of control

COc1ccc(OC)c(NC(=S)N/N=C(/C)c2cc(Cl)c(C)cc2O)c1
T/C (dose: 12.5 mg/kg/injection, schedule: Q04DX002 (ip), vehicle: Klucel (hydroxypropylcellulose) (HPC)): 112 % of control
T/C (dose: 25.0 mg/kg/injection, schedule: Q04DX002 (ip), vehicle: Klucel (hydroxypropylcellulose) (HPC)): 97 % of control
T/C (dose: 50.0 mg/kg/injection, schedule: Q04DX002 (ip), vehicle: Klucel (hydroxypropylcellulose) (HPC)): 97 % of control

CCCCC(OC(C)=O)C(OC(C)=O)C(COC(C)=O)NC(C)=O (stereo not given)
T/C [22]: 103 % of control
T/C [23]: 97 % of control
T/C [24]: 110 % of control

Cc1ccc[n+](CCc2c[nH]c3ccccc23)c1
T/C [10]: 90 % of control

CCOC1(OCC)CCS(=O)(=O)C1c1ccccc1 (stereo not given)
T/C [5]: 104 % of control
T/C (dose: 100.0 mg/kg/injection, schedule: Q01DX009 (ip), vehicle: acetone): 98 % of control
T/C [8]: 98 % of control
T/C (dose: 200.0 mg/kg/injection, schedule: Q01DX009 (ip), vehicle: acetone): 104 % of control
T/C (dose: 400.0 mg/kg/injection, schedule: Q01DX001 (ip), vehicle: acetone): 96 % of control
T/C (dose: 400.0 mg/kg/injection, schedule: Q01DX009 (ip), vehicle: acetone): 100 % of control

COC(=O)C(CO)NC(c1ccccc1)(c1ccccc1)c1ccccc1 (stereo not given)
T/C [4]: 91 % of control
T/C [6]: 95 % of control
T/C (dose: 200.0 mg/kg/injection, schedule: Q01DX009 (ip), vehicle: saline): 92 % of control
T/C (dose: 400.0 mg/kg/injection, schedule: Q01DX009 (ip), vehicle: saline): 97 % of control

CC[n+]1cn(-c2ccc(S(=O)(=O)[O-])cc2)nn1
T/C (dose: 100.0 mg/kg/injection, schedule: Q01DX001 (ip), vehicle: saline): 101 % of control
T/C (dose: 200.0 mg/kg/injection, schedule: Q01DX001 (ip), vehicle: saline): 110 % of control

Nc1cc(Cl)ccc1N1CCCCC1
T/C [13]: 114 % of control
T/C [14]: 97 % of control
T/C [15]: 106 % of control

COc1nc(Br)ccc1/C=N\NC(N)=S
T/C (dose: 10.0 mg/kg/injection, schedule: Q04DX003 (ip), vehicle: Klucel (hydroxypropylcellulose) (HPC)): 101 % of control
T/C (dose: 20.0 mg/kg/injection, schedule: Q04DX003 (ip), vehicle: Klucel (hydroxypropylcellulose) (HPC)): 95 % of control
T/C [21]: 98 % of control

Nc1ccc2c(c1)sc1ccccc12
T/C [10]: 88 % of control
T/C [11]: 91 % of control

C#CCCCCCC#CCCCCCC#CCCCCCC#C
T/C [7]: 94 % of control
T/C [9]: 95 % of control

O=C(O)/C=C/C(=O)Nc1ccc(F)cc1F
T/C [10]: 100 % of control
T/C [11]: 100 % of control
T/C [12]: 107 % of control

O=[N+]([O-])c1ccc(OCc2ccccc2)c([N+](=O)[O-])c1
T/C [13]: 90 % of control
T/C [10]: 90 % of control
T/C [14]: 87 % of control
T/C [11]: 90 % of control
T/C [15]: 87 % of control
T/C [12]: 89 % of control

Brc1c(-c2ccccc2)cc(-c2ccccc2)cc1-c1ccccc1
T/C [16]: 93 % of control
T/C [17]: 91 % of control
T/C [18]: 93 % of control
T/C [19]: 93 % of control
T/C [20]: 96 % of control
T/C [21]: 91 % of control

CCCOC(=O)N(C)c1ccccc1
T/C (dose: 75.0 mg/kg/injection, schedule: Q04DX002 (ip), vehicle: Klucel (hydroxypropylcellulose) (HPC)): 101 % of control
T/C (dose: 150.0 mg/kg/injection, schedule: Q04DX002 (ip), vehicle: Klucel (hydroxypropylcellulose) (HPC)): 101 % of control
T/C (dose: 300.0 mg/kg/injection, schedule: Q04DX002 (ip), vehicle: Klucel (hydroxypropylcellulose) (HPC)): 101 % of control

NC(Cc1c[nH]c2cc(N(CCCl)CCCl)ccc12)C(=O)O (stereo not given)
T/C (dose: 0.25 mg/kg/injection, schedule: Q01DX Z (ip), vehicle: other): 171 % of control
T/C (dose: 0.5 mg/kg/injection, schedule: Q01DX Z (ip), vehicle: other): 188 % of control
T/C (dose: 125.0 micrograms/kg/injection, schedule: Q01DX009 (ip), vehicle: carboxymethylcellulose (CMC)): 118 % of control
T/C (dose: 500.0 micrograms/kg/injection, schedule: Q01DX009 (ip), vehicle: carboxymethylcellulose (CMC)): 167 % of control
T/C (dose: 1000.0 micrograms/kg/injection, schedule: Q01DX009 (ip), vehicle: carboxymethylcellulose (CMC)): 229 % of control

CC(C)CCCC(C)C1CCC2C3CC4C(F)(Cl)C45CC4(CCC5(C)C3CCC12C)OCCO4 (stereo not given)
T/C [22]: 87 % of control
T/C [23]: 114 % of control
T/C [24]: 93 % of control

CC1CCc2cccc(NC(=O)NCCCl)c21 (stereo not given)
T/C [25]: 99 % of control
T/C [17]: 92 % of control
T/C [26]: 91 % of control
T/C [19]: 92 % of control
T/C (dose: 400.0 mg/kg/injection, schedule: Q01DX001 (ip), vehicle: Klucel (hydroxypropylcellulose) (HPC)): 96 % of control
T/C [21]: 92 % of control

Cc1nc(N)[nH]c(=O)c1CCCNS(=O)(=O)c1ccc(C(=O)CBr)cc1
T/C [1]: 93 % of control
T/C [2]: 87 % of control
T/C [3]: 96 % of control

c1ccc(C(N2CCN(c3ccccc3)CC2)N2CCN(c3ccccc3)CC2)cc1
T/C (dose: 100.0 mg/kg/injection, schedule: Q04DX002 (ip), vehicle: Klucel (hydroxypropylcellulose) (HPC)): 94 % of control
T/C (dose: 200.0 mg/kg/injection, schedule: Q04DX002 (ip), vehicle: Klucel (hydroxypropylcellulose) (HPC)): 94 % of control
T/C (dose: 400.0 mg/kg/injection, schedule: Q04DX002 (ip), vehicle: Klucel (hydroxypropylcellulose) (HPC)): 94 % of control

COc1ccccc1-n1c(O)c(N=Nc2ccc(Cl)cc2)c(=O)n(-c2ccc(Br)cc2)c1=S
T/C [25]: 89 % of control
T/C [26]: 92 % of control
